Experimental data as given in the supplement of paper PMC10307832.

Tests used:
Test in all cases: relative viability (nuclei count vs DMSO), 5 days (fraction); higher = more cells survive
[1] = system: PC-14
Procedure, shortened: (§1)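 Lung cancer cell lines in 1536-well plates got either a single drug or a fixed anchor-drug dose together with five library-drug doses (not always all listed) in √10 steps, by pin tool, on the day after seeding. Nuclei were counted after 5 days, and relative viability is the treated-to-vehicle ratio of nuclei counts. Values are medians of duplicate plates.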

[2] = system: NCI-H441
Procedure, shortened: as §1

[3] = system: LU99A
Procedure, shortened: as §1

[4] = system: COR-L23
Procedure, shortened: as §1

[5] = system: HCC-366
Procedure, shortened: as §1

[6] = system: NCI-H1437
Procedure, shortened: as §1

[7] = system: NCI-H2009
Procedure, shortened: as §1

[8] = system: COR-L 105
Procedure, shortened: as §1

[9] = system: NCI-H1666
Procedure, shortened: as §1

[10] = system: NCI-H1650
Procedure, shortened: as §1

[11] = system: EKVX
Procedure, shortened: as §1

[12] = system: BEN
Procedure, shortened: as §1

[13] = system: NCI-H727
Procedure, shortened: as §1

[14] = system: LK-2
Procedure, shortened: as §1

[15] = system: HARA
Procedure, shortened: as §1

[16] = system: NCI-H2023
Procedure, shortened: as §1

[17] = system: 201T
Procedure, shortened: as §1

[18] = system: NCI-H838
Procedure, shortened: as §1

[19] = system: NCI-H3122
Procedure, shortened: as §1

[20] = system: NCI-H2170
Procedure, shortened: as §1

[21] = system: CAL-12T
Procedure, shortened: as §1

For CC(C)Oc1cc(Nc2nc(N[C@@H](C)c3ccc(F)cn3)ncc2Cl)n[nH]1 [AZ23] + CC1(C)CCC(c2ccc(Cl)cc2)=C(CN2CCN(c3ccc(C(=O)NS(=O)(=O)c4ccc(N[C@H](CCN5CCOCC5)CSc5ccccc5)c(S(=O)(=O)C(F)(F)F)c4)cc3)CC2)C1 [Navitoclax] (partner 0.5 µM), the relative viability ([1]; first compound 0.01 µM) was 0.989, the relative viability ([1]; first compound 0.03162 µM) was 1.21 and the relative viability ([1]; first compound 0.3162 µM) was 1.1. For the same compound, the relative viability ([2]; first compound 0.01 µM) was 0.518, the relative viability ([2]; first compound 0.03162 µM) was 0.755 and the relative viability ([2]; first compound 0.3162 µM) was 0.769. It also gave a relative viability ([3]; first compound 0.01 µM) of 0.758, a relative viability ([3]; first compound 0.03162 µM) of 0.82 and a relative viability ([3]; first compound 0.3162 µM) of 0.701. It also gave a relative viability ([4]; first compound 0.01 µM) of 0.839, a relative viability ([4]; first compound 0.03162 µM) of 1.11 and a relative viability ([4]; first compound 0.3162 µM) of 1.05. It also gave a relative viability ([5]; first compound 0.01 µM) of 1.3, a relative viability ([5]; first compound 0.03162 µM) of 0.998 and a relative viability ([5]; first compound 0.3162 µM) of 0.883. For the same compound, the relative viability ([6]; first compound 0.01 µM) was 1.33, the relative viability ([6]; first compound 0.03162 µM) was 1.29 and the relative viability ([6]; first compound 0.3162 µM) was 1.13. The relative viability ([7]; first compound 0.01 µM) was 1.16, the relative viability ([7]; first compound 0.03162 µM) was 1.18 and the relative viability ([7]; first compound 0.3162 µM) was 1.19. The relative viability ([8]; first compound 0.01 µM) was 0.543, the relative viability ([8]; first compound 0.03162 µM) was 0.869 and the relative viability ([8]; first compound 0.3162 µM) was 0.736. The relative viability ([9]; first compound 0.01 µM) was 0.79, the relative viability ([9]; first compound 0.03162 µM) was 0.827 and the relative viability ([9]; first compound 0.3162 µM) was 1. The relative viability ([10]; first compound 0.01 µM) was 0.925, the relative viability ([10]; first compound 0.03162 µM) was 1.28 and the relative viability ([10]; first compound 0.3162 µM) was 1.05. For the same compound, the relative viability ([11]; first compound 0.01 µM) was 1.12, the relative viability ([11]; first compound 0.03162 µM) was 1.29 and the relative viability ([11]; first compound 0.3162 µM) was 1.02. The relative viability ([12]; first compound 0.01 µM) was 0.0781, the relative viability ([12]; first compound 0.03162 µM) was 0.0578 and the relative viability ([12]; first compound 0.3162 µM) was 0.0639. For the same compound, the relative viability ([13]; first compound 0.01 µM) was 0.382, the relative viability ([13]; first compound 0.03162 µM) was 0.506 and the relative viability ([13]; first compound 0.3162 µM) was 0.385. The relative viability ([14]; first compound 0.01 µM) was 0.653, the relative viability ([14]; first compound 0.03162 µM) was 0.915 and the relative viability ([14]; first compound 0.3162 µM) was 0.909. The relative viability ([15]; first compound 0.01 µM) was 0.973, the relative viability ([15]; first compound 0.03162 µM) was 1.16 and the relative viability ([15]; first compound 0.3162 µM) was 1.16. The relative viability ([16]; first compound 0.03162 µM) was 1.1, the relative viability ([16]; first compound 0.3162 µM) was 1.05 and the relative viability ([17]; first compound 0.01 µM) was 1.23. For the same compound, the relative viability ([17]; first compound 0.03162 µM) was 1.22, the relative viability ([17]; first compound 0.3162 µM) was 1.17 and the relative viability ([18]; first compound 0.01 µM) was 1.15. It also gave a relative viability ([18]; first compound 0.03162 µM) of 1.45, a relative viability ([18]; first compound 0.3162 µM) of 1.19 and a relative viability ([19]; first compound 0.01 µM) of 1.11. For the same compound, the relative viability ([19]; first compound 0.03162 µM) was 1.02, the relative viability ([19]; first compound 0.3162 µM) was 1.08 and the relative viability ([20]; first compound 0.01 µM) was 0.59. The relative viability ([20]; first compound 0.03162 µM) was 0.687, the relative viability ([20]; first compound 0.3162 µM) was 0.589 and the relative viability ([21]; first compound 0.01 µM) was 0.61. It also gave a relative viability ([21]; first compound 0.03162 µM) of 1.28 and a relative viability ([21]; first compound 0.3162 µM) of 1.17.
